Consider 4 compounds from US20160346389A1, “MODIFIED PARAMAGNETIC NANOPARTICLES FOR TARGETED DELIVERY OF THERAPEUTICS AND METHODS THEREOF” (ALBERT EINSTEIN COLLEGE OF MEDICINE INC., priority 2013, published 2016).

In series [1] the test system is U87 human glioblastoma cells. In words: Cell viability assay, Presto Blue, 48 h. The series is classed as cell-based. On the procedure:
FIG. 22 Cytotoxicity of naked curcumin, curcumin conjugated PMNPs and Sol-Gel Nps and blanks (without curcumin) performed on U87 human glioblastoma cells after 48 hours of incubation. Note that 1 μM equivalent curcumin concentration corresponds to 16.7 μg/mL of nanoparticles. […] The data represents the mean±SE, n=3 to 18.
Cells were plated in 24-well trays and allowed to become confluent then incubated with naked curcumin or different curcumin NP concentrations for 48 h. Cell viability was quantified using Presto Blue (Invitrogen) an assay that contains a cell permeable resazurin-based solution that is modified by the reducing environment of the viable cell becoming highly fluorescent. Using a plate reader, cell viability was quantified after 0.5-1 hours of incubation with Presto Blue. All measurements were always accompanied by control wells and by calibration wells to account for background fluorescence using the same culture media and the same NP concentrations without the cells.

Series [2] in a line: Histopathological analysis of multiple tissues (toxicity). The series is classed as in vivo, mice. The conditions noted are these: same dose (1 mg/kg BW). On the procedure:
FIGS. 11(A-B). Systemic effect of the treatment. (A) Representative H&E staining of tissue sections from ADM-PMNP injected mice (1 mg/kg BW)(A). (B) inflammation and hyperplasia were found in colon from mice treated with free ADM (B-left) but not in mice injected with the same dose of ADM-PMNP (B-right).

Series [3] has as its system MoB-1833 mammary xenografted tumor. As to the kind of experiment: ADM-PMNP plus magnetic field on xenografted human breast cancer, bioluminescence. The conditions noted are these: comparable amount of free drug. The series is classed as in vivo, mouse. The procedure:
FIG. 8 Anti-tumor effect of IV infused Adriamycin loaded PMNP (ADM-PMNP) plus magnetic field treatment on xenografted human breast cancer. Human breast cancer was s.c. xenografted in a female nude mouse. The mouse was injected with 1 mg/kg ADM-PMNP and the tumor was treated with magnetic field for 30 minutes following each injection The mouse was imaged before and after the treatment, the luminescent signals were quantitatively analyzed for change of tumor size. At the end of the treatment, there was a >80% decrease of luminescent signaling in the tumor. The signal recovered partially 3 days after the treatment was ended.
Signal intensity in treated tumor was similar to that in bladder, a major route of PMNP elimination. Next, to assess drug delivery and anti-tumor efficacy, MoB-1833 mammary xenografted tumor-bearing mice were infused with ADM-coated PMNP (ADM-PMNP). ADM use in chemotherapy is limited due to systemic toxicity and it is therefore an excellent model drug for evaluation of the potentially utility of our PMNP platform. […] This ADM dose is 5-20 times lower than doses of free ADM commonly used for in animal studies and similar to doses used clinically. The 4-day treatment achieved a 9-fold reduction in tumor mass (FIG. 8). Tumor rebound upon drug termination confirmed specificity of the drug effect. […] The necrosis was confirmed histologically (FIG. 9Bd-f). […]
For orientation: In xenograft studies the graft and the host belong to different species.

In series [4] the test system is human breast cancer line, MDA-MB-436. As to the kind of experiment: Tumor necrosis in xenografted human breast cancer. The series is classed as in vivo, mice. To be noted: 1.0 mg/kg.
Series [5] has as its system human breast cancer xenographs. As to the kind of experiment: MRI of magnetic field induced localization of PMNPs in breast cancer xenograft mice. The series is classed as in vivo, mouse. The procedure:
FIGS. 3(A-D). […] By applying a magnet field for 30 minutes at hind end (blue arrows), the enhanced image of hind-end tumor is observed (3B). The enhanced image of the tumor persists for at least several hours. […] The PMNPs are concentrated at site of a lower abdominal mammary tumor (FIG. 3C) using an external magnetic field placed over the tumor for 30 minutes. […] Imaging was performed over several hours without taking the mouse out of MRI machine thereby maintaining all of the imaging parameters.
FIGS. 4(A-B). Compares the MRI contrast data between […] and gadolinium oxide-based PMNPs.
In FIG. 3 are presented results on magnetic immobilization of gadolinium-based PMNPs in a mouse with numerous human breast cancer xenographs. There is no image enhancement for any of the multiple tumors located in different parts of the mouse including one at hind end (green-arrow at bottom of the picture marked tumor). The mouse was then removed and then subjected to thirty minutes of having a magnetic field placed over the tumor demarked by the green arrow. […] The intensity of MRI signal is very similar at both tumor and bladder. This is very different than observed in case of […] where there is a transient image of the bladder and no site specific localization of the contrast agent in any one of the tumors. […]

The nature of series [6]: Radiation protection by localized melanin. The series is classed as in vivo, rat. The conditions noted are these: earlier studies. An excerpt:
The same protocol used for curcumin also works for melanin resulting in melanin loaded OA-PMNPs. These particles have potential use as radioprotectants. The melanin loaded OA-PMNPs would be infused into the patient and then magnetically localized in healthy tissue surrounding the diseased tissue targeted for radiation treatment. […] Additionally melanin loaded PMNP can be used as targeted contrast agent for photo-acoustic based imaging.

Consider `COc1cc(/C=C/C(=O)CC(=O)/C=C/c2ccc(O)c(OC)c2)ccc1O` [Curcumin], for which the “equivalent Curcumin concentration that decreases cell viability by 20%” value in series [1] stood at 5 µM.
On to `COc1cccc2c1C(=O)c1c(O)c3c(c(O)c1C2=O)C[C@@](O)(C(=O)CO)C[C@@H]3O[C@H]1C[C@H](N)[C@H](O)[C@H](C)O1` [Adriamycin, doxorubicin], for which the colon histology result in series [2] is “colonic inflammation and hyperplasia”. In addition, the anti-tumor effect result in series [3] is “relatively ineffective”. In addition, in series [4], the tumor necrosis entry is recorded as “smaller necrotic lesions”.
Regarding `CNC[C@H](O)[C@@H](O)[C@H](O)[C@H](O)CO.CNC[C@H](O)[C@@H](O)[C@H](O)[C@H](O)CO.O=C([O-])CN(CCN(CC(=O)[O-])CC(=O)O)CCN(CC(=O)[O-])CC(=O)O.[Gd+3]`, in series [5] (FIG. 4), the “persistence of MRI contrast” value was “short lived”. Further, the “distribution of contrast agent by MRI” value in series [5] (within a short time, no magnetic field) is “concentrates in the bladder”.
melanin: in series [6], the “radiation damage in irradiated legs” value is on record as “prevent radiation damage”.
